Source: EPA's ToxRefDB 2

What was measured:
rat [1] = conditions: Subchronic oral toxicity in rodents, other, Feed, dose end: 13 week, group: systemic, systemic / pathology microscopic / stomach / erosion + systemic / pathology microscopic / stomach / inflammation + systemic / pathology …
dog [2] = conditions: Subchronic oral toxicity in nonrodent, beagle, Feed, dose end: 13 week, group: systemic, systemic / clinical chemistry / globulins / globulins + systemic / clinical chemistry / protein / protein + systemic / hematology / platelet…
rat [3] = conditions: Multigenerational reproductive toxicity study, other, Oral, Feed, dose end: 2 generation
rat [4] = conditions: Prenatal developmental toxicity study, other, Oral, Gavage/Intubation, dose end: 15 GD
dog [5] = conditions: Chronic toxicity, beagle, Oral, Feed, dose end: 104 week, group: systemic
mouse [6] = conditions: Carcinogenicity, cd1, Oral, Feed, dose end: 104 week, group: systemic
rat [7] = conditions: Multigenerational reproductive toxicity study, sprague dawley, Oral, Feed, dose end: 2 generation
rabbit = conditions: Prenatal developmental toxicity study, new zealand white, Oral, Gavage/Intubation, dose end: 28 GD
dog [8] = conditions: Subchronic oral toxicity in nonrodent, beagle, Feed, dose end: 90 day, group: systemic
rat [9] = conditions: Subchronic oral toxicity in rodents, other, Gavage/Intubation, dose end: 90 day, group: systemic, systemic / in life observation / body weight / body weight + systemic / in life observation / body weight / body weight gain + systemic / …
dog [10] = conditions: Subchronic oral toxicity in nonrodent, beagle, Gavage/Intubation, dose end: 91 day, group: systemic, systemic / in life observation / body weight / body weight + systemic / in life observation / body weight / body weight gain + systemic / …
rat [11] = conditions: Prenatal developmental toxicity study, other, Oral, Gavage/Intubation, dose end: 15 GD; remark: listed apart in the source
rat [12] = conditions: Subchronic oral toxicity in rodents, Fischer, Feed, dose end: 13 week, group: systemic, systemic / clinical chemistry / thyroxine (t4) / thyroxine (t4), total + systemic / clinical chemistry / triiodothyronine (t3) / …
rat [13] = conditions: Developmental neurotoxicity study; long evans; Injection; Subcutaneous; dose end: 132 PND; group: cannot be grouped; systemic / pathology gross / brain / reduced size + systemic / pathology microscopic / brain / depletion cellular
rat [14] = conditions: Combined chronic toxicity/carcinogenicity; Oral; Gavage/Intubation; dose end: 104 week; group: systemic; systemic / in life observation / body weight / body weight gain + systemic / in life observation / water consumption / water consumption + …
dog [15] = conditions: Subchronic oral toxicity in nonrodent, beagle, Capsule, dose end: 13 week, group: systemic
rat [16] = conditions: Subchronic oral toxicity in rodents, sprague dawley, Gavage/Intubation, dose end: 13 week, group: systemic
rat [17] = conditions: Prenatal developmental toxicity study, Charles River COBS CD rats, Oral, Gavage/Intubation, dose end: 20 GD
mouse [18] = conditions: Combined chronic toxicity/carcinogenicity, cd1, Oral, Gavage/Intubation, dose end: 24 month, group: systemic
dog [19] = conditions: Chronic toxicity; beagle; Oral; Capsule; dose end: 52 week; group: systemic; systemic / in life observation / body weight / body weight gain + systemic / in life observation / clinical signs / salivation + systemic / …
rat [20] = conditions: Multigenerational reproductive toxicity study, other, Oral, Gavage/Intubation, dose end: 2 generation
[21] = group: offspring, systemic / organ weight / spleen / absolute + systemic / organ weight / spleen / relative to body weight + developmental / offspring …
[22] = group: offspring, systemic / organ weight / spleen / absolute + systemic / organ weight / spleen / relative to body weight + systemic / organ weight / thymus…
[23] = group: parental, systemic / in life observation / body weight / body weight + systemic / in life observation / clinical signs / general pallor
[24] = group: developmental, developmental / developmental malformation / bone / wavy
[25] = group: maternal, systemic / in life observation / body weight / body weight gain
[26] = systemic / pathology microscopic / liver / [other] + systemic / clinical chemistry / alanine aminotransferase (alt/sgpt) / alanine …
[27] = systemic / pathology microscopic / liver / [other] + systemic / in life observation / body weight / body weight gain + systemic / in life …
[28] = systemic / pathology microscopic / liver / adenoma/carcinoma combined + systemic / pathology microscopic / liver / carcinoma + systemic / …
[29] = systemic / pathology microscopic / liver / carcinoma + systemic / pathology microscopic / liver / adenoma/carcinoma combined + systemic / …
[30] = group: offspring, systemic / in life observation / body weight / offspring (pup) weight
[31] = group: parental, systemic / pathology microscopic / epididymis / hypospermia + systemic / pathology microscopic / testes / atrophy + systemic / pathology …
[32] = group: developmental, developmental / developmental malformation / kidney / small renal papilla
[33] = group: maternal, systemic / in life observation / clinical signs / body surface staining + systemic / in life observation / food consumption / food …
[34] = systemic / clinical chemistry / cholesterol / cholesterol + systemic / clinical chemistry / albumin / albumin + systemic / in life …
[35] = group: developmental, developmental / developmental malformation / bone / incomplete ossification + developmental / developmental malformation / bone / wavy + …
[36] = group: maternal, systemic / in life observation / body weight / body weight gain + systemic / in life observation / food consumption / food consumption
[37] = group: maternal, systemic / in life observation / body weight / body weight gain + systemic / in life observation / food consumption / food consumption + …
[38] = systemic / in life observation / clinical signs / watery stools
[39] = systemic / organ weight / liver / absolute + systemic / in life observation / body weight / body weight gain + systemic / in life …
[40] = group: developmental, systemic / in life observation / body weight / offspring (pup) weight
[41] = group: maternal, systemic / in life observation / body weight / body weight gain + systemic / in life observation / clinical signs / salivation
[42] = systemic / organ weight / ovary / absolute + systemic / organ weight / ovary / relative to body weight + systemic / organ weight / adrenal …
[43] = group: offspring, systemic / in life observation / clinical signs / reduced body size
[44] = group: parental, systemic / in life observation / body weight / body weight gain

Compound: CCCCCCCCn1sc(Cl)c(Cl)c1=O [4,5-Dichloro-2-octyl-3(2H)-isothiazolone]
- LEL (rat [1]): 60.7 mg/kg/day
- LOAEL (rat [1]): 60.7 mg/kg/day
- NEL (rat [1]): 32.5 mg/kg/day
- NOAEL (rat [1]): 32.5 mg/kg/day
- LEL (dog [2]): 45.9 mg/kg/day
- LOAEL (dog [2]): 45.9 mg/kg/day
- NEL (dog [2]): 10.1 mg/kg/day
- NOAEL (dog [2]): 10.1 mg/kg/day
- NEL (rat [3]; [21]): 10 mg/kg/day
- NOAEL (rat [3]; [21]): 10 mg/kg/day
- LEL (rat [3]; [22]): 20 mg/kg/day
- LOAEL (rat [3]; [22]): 20 mg/kg/day
- LOAEL (rat [3]; group: parental, systemic / in life observation / body weight / body weight + systemic / in life observation / body weight / body weight gain): 40 mg/kg/day
- LEL (rat [3]; group: parental, systemic / in life observation / body weight / body weight + systemic / in life observation / body weight / body weight gain + systemic / in…): 40 mg/kg/day
- NEL (rat [3]; [23]): 20 mg/kg/day
- NOAEL (rat [3]; [23]): 20 mg/kg/day
- LEL (rat [4]; [24]): 100 mg/kg/day
- LOAEL (rat [4]; [24]): 100 mg/kg/day
- NEL (rat [4]; [24]): 30 mg/kg/day
- NOAEL (rat [4]; [24]): 30 mg/kg/day
- LEL (rat [4]; [25]): 10 mg/kg/day
- NEL (rat [4]; [25]): < 10 mg/kg/day
- LOAEL (rat [4]; group: maternal, systemic / in life observation / clinical signs / defecation + systemic / in life observation / food consumption / food consumption): 30 mg/kg/day
- NOAEL (rat [4]; group: maternal, systemic / in life observation / clinical signs / defecation + systemic / in life observation / food consumption / food consumption + …): 10 mg/kg/day

Compound: CCCCNC(=O)n1c(NC(=O)OC)nc2ccccc21 [Benomyl]
- LEL (dog [5]; [26]): 62.5 mg/kg/day
- LOAEL (dog [5]; [26]): 62.5 mg/kg/day
- NEL (dog [5]; [27]): 12.5 mg/kg/day
- NOAEL (dog [5]; [27]): 12.5 mg/kg/day
- LOAEL (mouse [6]; [28]): > 750 mg/kg/day
- NOAEL (mouse [6]; [28]): ≥ 750 mg/kg/day
- LEL (mouse [6]; [29]): 75 mg/kg/day
- NEL (mouse [6]; [29]): < 75 mg/kg/day
- LEL (rat [7]; [30]): 234 mg/kg/day
- LOAEL (rat [7]; [30]): 234 mg/kg/day
- NOAEL (rat [7]; [30]): 38 mg/kg/day
- NEL (rat [7]; group: offspring, systemic / in life observation / body weight / offspring (pup) weight + systemic / in life observation / clinical signs / reduced body size): 38 mg/kg/day
- LOAEL (rat [7]; group: parental, systemic / pathology microscopic / epididymis / hypospermia): 234 mg/kg/day
- NOAEL (rat [7]; group: parental, systemic / pathology microscopic / epididymis / hypospermia + systemic / in life observation / body weight / body weight + systemic / in …): 38 mg/kg/day
- LEL (rat [7]; [31]): 168 mg/kg/day
- NEL (rat [7]; [31]): 28 mg/kg/day
- LEL (rabbit; [32]): 180 mg/kg/day
- LOAEL (rabbit; [32]): 180 mg/kg/day
- NEL (rabbit; [32]): 90 mg/kg/day
- NOAEL (rabbit; [32]): 90 mg/kg/day
- LEL (rabbit; [33]): 180 mg/kg/day
- LOAEL (rabbit; [33]): 180 mg/kg/day
- NEL (rabbit; [33]): 90 mg/kg/day
- NOAEL (rabbit; [33]): 90 mg/kg/day
- LEL (dog [8]; systemic / clinical chemistry / cholesterol / cholesterol): 12.5 mg/kg/day
- LOAEL (dog [8]; systemic / clinical chemistry / cholesterol / cholesterol + systemic / clinical chemistry / alanine aminotransferase (alt/sgpt) / alanine …): 37.5 mg/kg/day
- NEL (dog [8]; [34]): 2.5 mg/kg/day
- NOAEL (dog [8]; [34]): 12.5 mg/kg/day

Compound: CCC(CN1CCOCC1)[N+](=O)[O-] (configuration not stated) [4-(2-Nitrobutyl)morpholine]
- LEL (rat [9]): 10 mg/kg/day
- LOAEL (rat [9]): > 50 mg/kg/day
- NEL (rat [9]): 5 mg/kg/day
- NOAEL (rat [9]): ≥ 50 mg/kg/day
- LEL (dog [10]): 25 mg/kg/day
- LOAEL (dog [10]): 25 mg/kg/day
- NEL (dog [10]): 10 mg/kg/day
- NOAEL (dog [10]): 10 mg/kg/day

Compound: CNC.O=C(O)COc1ccc(Cl)cc1Cl [2,4-D, Dimethylamine salt]
- LOAEL (rat [11]; [35]): 100 mg/kg/day
- NEL (rat [11]; [35]): 12.5 mg/kg/day
- NOAEL (rat [11]; [35]): 50 mg/kg/day
- LEL (rat [11]; group: developmental, developmental / developmental malformation / general / [other]): 50 mg/kg/day
- LEL (rat [11]; [36]): 50 mg/kg/day
- LOAEL (rat [11]; [36]): 50 mg/kg/day
- NEL (rat [11]; [37]): 12.5 mg/kg/day
- NOAEL (rat [11]; [37]): 12.5 mg/kg/day
- LEL (rat [12]): 120 mg/kg/day
- LOAEL (rat [12]): 120 mg/kg/day
- NEL (rat [12]): 18.1 mg/kg/day
- NOAEL (rat [12]): 18.1 mg/kg/day

Compound: COc1cc2c(c(OC)c1OC)-c1ccc(OC)c(=O)cc1[C@@H](NC(C)=O)CC2 [Colchicine]
- LEL (rat [13]): 0.4 mg/kg/day
- LOAEL (rat [13]): > 0.4 mg/kg/day
- NEL (rat [13]): < 0.4 mg/kg/day
- NOAEL (rat [13]): ≥ 0.4 mg/kg/day

Compound: CC1(C)[C@H](C(=O)O[C@H](C#N)c2cccc(Oc3ccccc3)c2)[C@@H]1C(Br)C(Br)(Br)Br (some centres not stated) [Tralomethrin]
- LEL (rat [14]): 3 mg/kg/day
- LOAEL (rat [14]): 3 mg/kg/day
- NEL (rat [14]): 0.75 mg/kg/day
- NOAEL (rat [14]): 0.75 mg/kg/day
- LOAEL (dog [15]; systemic / hematology / erythrocyte (rbc) count differential / erythrocyte (rbc) + systemic / hematology / hemoglobin (hgb) / hemoglobin (…): 10 mg/kg/day
- LEL (dog [15]; [38]): 0.1 mg/kg/day
- NEL (dog [15]; [38]): < 0.1 mg/kg/day
- NOAEL (dog [15]; systemic / in life observation / clinical signs / watery stools + systemic / hematology / erythrocyte (rbc) count differential / erythrocyte…): 1 mg/kg/day
- LOAEL (rat [16]; systemic / organ weight / liver / absolute): 6 mg/kg/day
- LEL (rat [16]; systemic / organ weight / liver / absolute + systemic / in life observation / body weight / body weight gain): 6 mg/kg/day
- NEL (rat [16]; [39]): 1 mg/kg/day
- NOAEL (rat [16]; [39]): 1 mg/kg/day
- LEL (rat [17]; [40]): 12 mg/kg/day
- LOAEL (rat [17]; [40]): > 12 mg/kg/day
- NEL (rat [17]; [40]): 3 mg/kg/day
- NOAEL (rat [17]; [40]): ≥ 12 mg/kg/day
- LOAEL (rat [17]; group: maternal, systemic / in life observation / body weight / body weight gain + reproductive / offspring survival early / birth index / live birth index): 12 mg/kg/day
- LEL (rat [17]; group: maternal, systemic / in life observation / body weight / body weight gain + reproductive / offspring survival early / birth index / live birth index…): 12 mg/kg/day
- NEL (rat [17]; [41]): 3 mg/kg/day
- NOAEL (rat [17]; [41]): 3 mg/kg/day
- LEL (mouse [18]; [42]): 0.75 mg/kg/day
- NEL (mouse [18]; [42]): < 0.75 mg/kg/day
- LOAEL (mouse [18]; systemic / pathology gross / skin / lesion(s) (nos)): 3 mg/kg/day
- NOAEL (mouse [18]; systemic / pathology gross / skin / lesion(s) (nos) + systemic / in life observation / clinical signs / abnormal motor movement + systemic…): 0.75 mg/kg/day
- LEL (dog [19]): 3 mg/kg/day
- LOAEL (dog [19]): 3 mg/kg/day
- NEL (dog [19]): 1 mg/kg/day
- NOAEL (dog [19]): 1 mg/kg/day
- LEL (rat [20]; [43]): 0.75 mg/kg/day
- LOAEL (rat [20]; [43]): 0.75 mg/kg/day
- NEL (rat [20]; [43]): < 0.75 mg/kg/day
- NOAEL (rat [20]; [43]): < 0.75 mg/kg/day
- LEL (rat [20]; [44]): 3 mg/kg/day
- LOAEL (rat [20]; [44]): 3 mg/kg/day
- NEL (rat [20]; [44]): 0.75 mg/kg/day
- NOAEL (rat [20]; [44]): 0.75 mg/kg/day
